Source: US4435591A, “Compound with analgesic, antiinflammatory and antipyretic activity, and pharmaceutical compositions therefrom” (Ausonia Farmaceutici s.r.l., priority 1982, dated 1984)
Several values for one entry are separate records, joined by “and”; a condition that tells them apart may be missing. Equal values may be shown once. Read-outs that look alike come from different tables or passages of the source.

Columns and labels:
[1] = system: Pleuritis caused by carrageenan in rats; assay: Pleuritis caused by carrageenan in rats (Vinegar et al); type: in vivo; conditions: for Number of leucocytes × 1,000 / Volume of exudate in cc / Number of leucocytes, % inhibition with respect to the controls / Volume of exudate, % inhibition with respect to the controls: 100 mg/Kg oral
[2] = system: Arthritis caused by the adjuvant of Freund in rats; assay: Arthritis caused by the adjuvant in rats (Winter and Nuss); type: in vivo
Text: For the evaluation for the efficiency of the substance the following parameters have been considered: diameter of articulations, volume of the hind paws, hematological and hematochemical examination, weight of the suprarenal glands and thymus.

mice = assay: in vivo; type: in vivo; conditions: mice and rats, particularly by the oral route
in vivo [3] = type: in vivo; conditions: mouse, in vivo, mice, read-out: DL50 (limit of error 95%)
[4] = system: Hyperthermia caused by yeast; assay: Antipyretic activity, hyperthermia caused by yeast in rats (Boissier and Simon); type: in vivo
Text: The experiment has been carried out in rats in which the body temperature has been increased by means of yeast by the method according to J. R. Boissier and P. Simon (Therapie, 1962, 17, 1225). […] It is, however, necessary to keep in mind the difference in molecular weight between the two substances under examination.

[5] = system: subplantar edema caused by carrageenan in rats; assay: Edema caused by carrageenan in rats (Winter et al); type: in vivo; conditions: oral, AFP 802 187 mg/Kg, ibuprofen 100 mg/Kg
Procedure: The anti-inflammatory activity has been investigated by a series of tests using edema caused by carrageenan and kaolin pleuritis caused by carrageenan and arthritis caused by an adjuvant.
The plyethysmographic observations of the edema have been carried out every hour for a period of 7 hours after the induction of the edema.

[6] = system: Writhing caused by phenylquinone in mice; assay: Writhing caused by phenylquinone in mice (Siegmung et al); type: in vivo
Text: The analgesic activity of AFP 802 has been studied by means of the writhing test with phenylquinone in mice and by means of the test of Randall and Selitto in rats.

[7] = Pharmacokinetics, plasma levels after oral administration in rats; type: in vivo
Procedure: (§1) AFP 802 has been administered orally in the dose of 200 mg/kg in rats. […] The animals are killed in groups of four after the following time periods; 15 minutes, 30 minutes, 1 hour, 2 hours, 4 hours, 6 hours and 24 hours.

in vivo [8] = conditions: rat, rats, read-out: DL50 (limit of error 95%)
[9] = Organ to plasma ratio of ibuprofen concentrations in rats; type: in vivo; conditions: vs administration of ibuprofen
Procedure: as §1

[10] = system: Edema caused by kaolin in rats; assay: Edema caused by kaolin in rats (Coulon et al); conditions: 5 consecutive days
[11] = system: Test of Randall and Selitto, in rats; assay: Test of Randall and Selitto in rats; type: in vivo
Procedure: The analgesic activity of AFP 802 has been studied by means of the writhing test with phenylquinone in mice and by means of the test of Randall and Selitto in rats. Test of Randall and Selitto in rats. This test was carried out according to the method of L. Randall and J. Selitto reported in Arch. Int. Pharmacodyn., 1957 III, 409. […] The variations of pressure tolerated without variation in pain have been determined each hour, for 5 consecutive hours and the results are reported in Table 10.

gastric mucosa = system: gastric mucosa; parameters: species or system rats; conditions: rat, in vivo, po
[12] = both paws, area under the curve of the increases, 100 mg/Kg/die oral

SMILES: COc1cc(C(=O)OCC(C)c2ccc(CC(C)C)cc2)cc(OC)c1OC (centres unmarked) [AFP 802, 2-(4-isobutylphenyl)1-propanol 3,4,5-trimethoxybenzoate]
- Number of leucocytes × 1,000 ([1]; 5 hours): 4,804 × 1,000
- Volume of exudate in cc ([1]; 5 hours): 0.56 cc
- Number of leucocytes, % inhibition with respect to the controls ([1]; 5 hours, 100 mg/kg): 71.80% and 72%
- Volume of exudate, % inhibition with respect to the controls ([1]; 5 hours, 100 mg/kg): 43.43% and 43%
- effect in pleuritis compared with ibuprofen (in words) ([1]; 5 hours, equal doses by weight): analogous to the values obtained by administration of equal doses by weight of ibuprofen
- effect in pleuritis (in words) ([1]; 24 hours after the administration): practically unchanged
- Number of leucocytes × 1,000 ([1]; 24 hours): 7,676 × 1,000
- Number of leucocytes, % inhibition with respect to the controls ([1]; 24 hours): 58.05%
- Volume of exudate in cc ([1]; 24 hours): 0.47 cc
- Volume of exudate, % inhibition with respect to the controls ([1]; 24 hours): 48.91%
- ALBUMIN (%) ([2]; 100 mg/Kg/die oral): 70.3 ± 0.97%
- GLOBULIN (%) α1 ([2]; 100 mg/Kg/die oral): 7.2 ± 0.36%
- GLOBULIN (%) α2 ([2]; 100 mg/Kg/die oral): 6.2 ± 0.38%
- GLOBULIN (%) β1 ([2]; 100 mg/Kg/die oral): 11.7 ± 0.30%
- GLOBULIN (%) β2 ([2]; 100 mg/Kg/die oral): 5.7 ± 0.45%
- GLOBULIN (%) γ ([2]; 100 mg/Kg/die oral): 2.0 ± 0.31%
- Hematocrit ([2]; 100 mg/Kg/die oral): 46.1 ± 0.6
- Red Cells ([2]; 100 mg/Kg/die oral): 5,912.600 ± 1.434 × mm^3
- VES ([2]; 100 mg/Kg/die oral): 0.9 ± 0.1
- Σ Diameter D + S, Area [2, 12]: 2,602.0
- Σ Volume D + S, Area [2, 12]: 15,652
- Σ Diameter D + S, % inhibition ([2]; both paws, 100 mg/Kg/die oral): 71.08%
- Σ Volume D + S, % inhibition ([2]; both paws, 100 mg/Kg/die oral): 47.76%
- activity in adjuvant arthritis (in words) ([2]; oral, 45 consecutive days, 6 days per week): essentially analogous to that of ibuprofen
- Suprarenal ([2]; weight, 100 mg/Kg/die oral): 64.5 ± 3.3 mg
- Thymus ([2]; weight, 100 mg/Kg/die oral): 422.3 ± 19.1 mg
- DL50 compared with ibuprofen (in words) (mice): more favorable than ibuprofen particularly by the oral route
- LD50 (in vivo [3]; ip, intraperitoneal route): 1750 mg/kg
- LD50 (in vivo [3]; oral route): > 4000 mg/kg
- % inhibition with respect to control ([4]; 100 mg/Kg oral): 86.12%
- Rectal temperature ([4]; 1 hour after treatment, 100 mg/Kg oral): 38.22 °C
- Rectal temperature ([4]; 2 hours after treatment, 100 mg/Kg oral): 37.75 °C
- Rectal temperature ([4]; 3 hours after treatment, 100 mg/Kg oral): 37.51 °C
- Rectal temperature ([4]; 4 hours after treatment, 100 mg/Kg oral): 37.16 °C
- Rectal temperature ([4]; 5 hours after treatment, 100 mg/Kg oral): 37.04 °C
- Rectal temperature ([4]; Basal, 100 mg/Kg oral group): 38.73 °C
- antipyretic activity compared with ibuprofen (in words) ([4]; equal dose, oral): only slightly inferior to the activity of an equal dose of ibuprofen
- duration of action compared with ibuprofen (in words) ([4]; rat, in vivo): longer duration of action
- Average volume of the paw ([5]; 0 hours): 22.6
- Average volume of the paw ([5]; 1 hour): 27.9
- Average volume of the paw ([5]; 2 hours): 28.6
- Average volume of the paw ([5]; 3 hours): 28.4
- Average volume of the paw ([5]; 4 hours): 28.9
- Average volume of the paw ([5]; 5 hours): 29.6
- % inhibition vs control ([5]; area): 60.4%
- Area Absolute Value [5]: 119.3
- % inhibition with respect to the control ([6]; 100 mg/Kg oral): 78.2%
- No. of Contorsions ([6]; 100 mg/Kg oral): 4.5
- % inhibition with respect to the control ([6]; 200 mg/Kg oral): 89.1%
- No. of Contorsions ([6]; 200 mg/Kg oral): 2.3
- analgesic activity compared with ibuprofen (in words) ([6]; equal weight, oral): equal activity of the two products
- presence in the blood fluid (in words) ([7]; 15 minutes and 30 minutes after oral 200 mg/kg): presence already after a short period of time in the blood fluid
- area under the curve of the plasma levels of ibuprofen (AUC) (in words) ([7]; AFP 802 200 mg/kg vs ibuprofen 100 mg/kg, oral): substantially similar in the administration of the two substances
- plasma levels of ibuprofen over time (in words) ([7]; ibuprofen after AFP 802 vs ibuprofen in equimolar doses): substantially latent with respect to ibuprofen in equimolar doses
- time when ibuprofen (active metabolite) begins to appear in the blood (in words) ([7]; ibuprofen after oral AFP 802 200 mg/kg): the first hour which is the time when ibuprofen, which is its active metabolite, begins to appear
- bioavailability by the oral route (in words) ([7]; oral 200 mg/kg): readily bioavailability by the oral route
- presence in the blood after the first hour (in words) ([7]; oral 200 mg/kg): found in the blood even after the first hour
- LD50 (in vivo [8]; ip, intraperitoneal route): 193 mg/kg
- LD50 (in vivo [8]; oral route): > 4000 mg/kg
- ratio of the organ to the plasma for ibuprofen concentrations (in words) ([9]; kidney): lower in the case of kidney
- ratio of the organ to the plasma for ibuprofen concentrations (in words) ([9]; liver, lungs and uterus): higher in the case of liver, lungs and uterus
- % inhibition with respect to the controls ([10]; area, oral every 24 hours, dose AFP 802 115, ibuprofen 60): 44.10%
- inhibition of the inflammation (in words) ([10]; equimolar oral doses): inhibits the inflammation to a substantial extent with values which overlap with the values obtained in the case of ibuprofen
- Area (area under the curve of the increase of the diameter of the articulations) ([10]; oral every 24 hours, dose AFP 802 115, ibuprofen 60): 9799.5 mm^2
- % INHIBITION WITH RESPECT TO THE CONTROL, I ([11]; area, inflamed paw, 100 mg/Kg oral): 110.89%
- % INHIBITION WITH RESPECT TO THE CONTROL, NI ([11]; area, not inflamed paw, 100 mg/Kg oral): 46.93%
- AREA ABSOLUTE VALUE, I ([11]; inflamed paw, area of the increase of the pressure tolerated, 100 mg/Kg oral): 11.7 ± 22.1
- activity expressed in percent of inhibition of the area (in words) ([11]; limb in which no injections have been made): fair, lower than the activity of ibuprofen
- activity expressed in percent of inhibition of the area (in words) ([11]; limbs affected by edema): high, superior to the activity of ibuprofen
- AREA ABSOLUTE VALUE, NI ([11]; not inflamed paw, area of the increase of the pressure tolerated, 100 mg/Kg oral): -61.20 ± 16.39
- effects of gastric lesion (in words) (gastric mucosa): almost negligible
